This is an account of results in patent US8933270B2, “Use of docasatrienes, resolvins, and their stable analogs in the treatment of airway diseases and asthma” (The Brigham and Women's Hospital, Inc., priority 2002, dated 2015).

Experiment [1] has as its system IL-1β transcripts in DBTRG-05MG cells. The experiment can be described thus: Inhibition of TNF-stimulated IL-1β transcripts (RT-PCR). The class given is cell-based, human. The note with it: Homo sapiens, DBTRG-05MG; 50 ng/ml TNFα, 16 h; read-out: IC50, inhibition of TNFα-induced IL-1β transcripts / cytokine expression. The method, then: FIG. 5 depicts Bioimpact properties of omega-3-derived Resolvins. A) Human glioma cells: Inhibition of TNF-stimulated IL-1β transcripts DBTRG-05MG cells 10^6/ml were stimulated with 50 ng/ml of human recombinant TNFα for 16 hours to induce expression of IL-1β transcripts. Concentration dependence with COX-2 products: 17-HDHA (n), 13-HDHA (l)and di-/tri-HDHA (n). […] (insets) Results are representative of RT-PCR gels of MG cells exposed to 100 nM of 13-HDHA or 17-HDHA and graphed after normalization of the IL-1β transcripts using GAPDH. B) Influence of eicosanoids and docosanoids on fMLP-induced neutrophil migration across micovascular endothelial monolayers Neutrophils (1×10^6 cells/monolayer) were exposed to vehicle containing buffer, or indicated concentrations of aspirin-triggered LXA4 analog (closed diamonds) 5S,12,18R-triHEPE (closed squares), 17R-HDHA (closed circles) or 13-HDHA (closed triangles) for 15 minutes at 37° C. Neutrophils were then layered on HMVEC monolayers and stimulated to transmigrate by a 10^−8 M fMLP gradient for 1 hr at 37° C. Transmigration was assessed by quantitation of the neutrophil marker myeloperoxidase. Results are presented as mean±SEM number of PMN (n=8-12 monolayers per condition). […]
Human glioma cells DBTRG-05MG cells (ATCC) were cultured as recommended by ATCC. […] Results were analyzed using the NIH Image program (http://rsb.info.nih.gov/nih-image).

The subject of experiment [2] is human PMN. The experiment can be described thus: fMLP-induced neutrophil migration across microvascular endothelial monolayers (MPO). It counts as cell-based. As to conditions: nM range; 10^-8 M fMLP gradient, 1 hr. The method, then:
FIG. 5 depicts Bioimpact properties of omega-3-derived Resolvins. A) Human glioma cells: Inhibition of TNF-stimulated IL-1β transcripts DBTRG-05MG cells 10^6/ml were stimulated with 50 ng/ml of human recombinant TNFα for 16 hours to induce expression of IL-1β transcripts. Concentration dependence with COX-2 products: 17-HDHA (n), 13-HDHA (l)and di-/tri-HDHA (n). […] (insets) Results are representative of RT-PCR gels of MG cells exposed to 100 nM of 13-HDHA or 17-HDHA and graphed after normalization of the IL-1β transcripts using GAPDH. […] Transmigration was assessed by quantitation of the neutrophil marker myeloperoxidase. […]
Human PMN transendothelial migration was quantitated by monitoring myeloperoxidase (MPO) an azurophilic granule marker as in (34, 37). […] At 6 h (within the resolution phase), pouches were lavaged (3 ml saline) and exudate cells were enumerated Inhibition of TNFα stimulated (100 ng/pouch) PMN infiltration with i.v. tail injection of either 17R-HDHA (as prepared with COX-2 vide infra), 5S,12,18R-HEPE, or a 15-epi-LXA4 analog were determined with pouch lavages taken at 4 h. […]

The subject of experiment [3] is leukocyte infiltration. The experiment can be described thus: TNFα-induced dorsal air pouch. The class given is in vivo, FVB mice. As to conditions: i.v. or local (intrapouch) administration, lavage at 4 h.
For experiment [4], the system named is leukotrienes. The experiment can be described thus: Leukotriene formation by human PMN. It counts as cell-based. The note with it: in vitro, n=4, not shown.
Experiment [5] concerns PMN infiltration. As to the kind of experiment: Zymosan A-induced peritonitis. The class given is in vivo, FVB mice. The note with it: i.v. bolus before zymosan A, lavage at 2 h. The method, then:
FIG. 5 depicts Bioimpact properties of omega-3-derived Resolvins. A) Human glioma cells: Inhibition of TNF-stimulated IL-1β transcripts DBTRG-05MG cells 10^6/ml were stimulated with 50 ng/ml of human recombinant TNFα for 16 hours to induce expression of IL-1β transcripts. Concentration dependence with COX-2 products: 17-HDHA (n), 13-HDHA (l)and di-/tri-HDHA (n). […] (insets) Results are representative of RT-PCR gels of MG cells exposed to 100 nM of 13-HDHA or 17-HDHA and graphed after normalization of the IL-1β transcripts using GAPDH. B) Influence of eicosanoids and docosanoids on fMLP-induced neutrophil migration across micovascular endothelial monolayers Neutrophils (1×10^6 cells/monolayer) were exposed to vehicle containing buffer, or indicated concentrations of aspirin-triggered LXA4 analog (closed diamonds) 5S,12,18R-triHEPE (closed squares), 17R-HDHA (closed circles) or 13-HDHA (closed triangles) for 15 minutes at 37° C. Neutrophils were then layered on HMVEC monolayers and stimulated to transmigrate by a 10^−8 M fMLP gradient for 1 hr at 37° C. Transmigration was assessed by quantitation of the neutrophil marker myeloperoxidase. Results are presented as mean±SEM number of PMN (n=8-12 monolayers per condition). C) Reduction of PMN in murine peritonitis and skin pouch peritonitis: Compounds (100 ng in 120 μL sterile saline) were injected by intravenous bolus injection into the mouse tail vein and followed by 1 ml zymosan A (1 mg/ml) into the peritoneum. Peritoneal lavages were collected (2 h) and cell types were enumerated.
Human PMN transendothelial migration was quantitated by monitoring myeloperoxidase (MPO) an azurophilic granule marker as in (34, 37). Inflammatory exudates were initiated with intrapouch injection of recombinant mouse TNFα (100 ng/pouch; R&D Systems) into dorsal air pouches (10) of 6-8 wk male FVB mice fed laboratory rodent diet 5001 (Lab Diet, Purina Mills) containing less than 0.25% arachidonic acid, 1.49% EPA and 1.86% DHA followed by ASA (500 μg) at 3.5 h and 300 μg DHA/pouch at 4 h post-TNFα injection. At 6 h (within the resolution phase), pouches were lavaged (3 ml saline) and exudate cells were enumerated Inhibition of TNFα stimulated (100 ng/pouch) PMN infiltration with i.v. tail injection of either 17R-HDHA (as prepared with COX-2 vide infra), 5S,12,18R-HEPE, or a 15-epi-LXA4 analog were determined with pouch lavages taken at 4 h. Peritonitis was performed using 6 to 8-week-old FVB male mice (Charles River Laboratories) fed laboratory Rodent Diet 5001 (Purina Mills) that were anesthetized with isoflurane, and compounds to be tested (125 μl) were administered intravenously. Zymosan A in 1 ml (1 mg/ml) was injected ˜1-1.5 min later in the peritoneum. Each test compound (100 ng/incubation, i.e. 17R-HDHA in ethanol) or vehicle alone was suspended in ˜5 μl and mixed in sterile saline 120 μl. Two hours after the intraperitoneal injections, and in accordance with the Harvard Medical Area Standing Committee on Animals protocol #02570, mice were euthanized and peritoneal lavages rapidly collected for enumeration.
Peritonitis was induced in 6 to 8 week old male FVB mice by peritoneal injection of 1 mg Zymosan A. Compounds 4,17S and 10,17S-diHDHA were injected by intravenous bolus injection, 1.5 minutes before Zymosan A treatment. Two hours after induction of peritonitis, rapid peritoneal lavages were collected and cell type enumeration was performed.

Experiment [6] relates to leukotrienes. As to the kind of experiment: Leukotriene formation in murine exudates. It counts as in vivo. As to conditions: n=4, not shown.

In the case of `CC/C=C\CC(O)/C=C/C=C\C/C=C\C/C=C\C/C=C\CCC(=O)O` (stereo not drawn) [17R-HDHA, 17-hydroxy-docosa-4Z,7Z,10Z,13Z,15E,19Z-hexaenoic acid], the IC50 in experiment [1] was around 0.05 nM. The “direct impact on PMN transmigration across endothelial monolayers” value in experiment [2] is “did not directly inhibit”. Further, the “regulation of PMN/leukocyte recruitment into the air pouch” value in experiment [3] is reported as “did regulate in vivo PMN exudate cell numbers”. The formation of leukotrienes result in experiment [4] and in experiment [6] was “prevented formation of leukotrienes” each time. Further, the “inhibition of PMN/leukocyte infiltration” value in experiment [5] was “potent inhibitor”.
